This is an account of results in patent publication US20170049725A9, “COMBINATION CANCER TREATMENT” (WISCONSIN ALUMNI RESEARCH FOUNDATION, priority 2014, published 2017).

Entries after “also recorded” stand apart in the source; their conditions may differ.

For data set [1], the system named is DU145 prostate carcinoma cells. Nature of the data set: MTS cell viability assay. A general note: Tetrazolium dyes change colour on reduction, which living cells bring about.
Procedure: (§5) Human GILM2, HT29 and DU145 carcinoma cells were untreated or preincubated with metformin (MF, 5 mM) for 48 hours and then treated with TRAIL (1.5 μg/ml), mapatumumab (1.5 μg/ml), or lexatumumab (1.5 μg/ml) for an additional 24 hours. Cell viability was determined by MTS assay and expressed as fold-change relative to untreated controls. *P<0.05, **P<0.01 or ***P<0.001 versus controls.
(§6) Cell viability assay: An MTS cell viability assay was performed as known in the art. Briefly, cells were plated overnight in 96-well plates (3×10^3 cells/well). Cells were then untreated or preincubated with metformin (5 mM) for 48 hours before adding lexatumumab (1.5 μg/ml), mapatumumab (1.5 μg/ml) or TRAIL (1.5 μg/ml). Cell viability was assessed 24 hours later. Cell viability was determined in triplicate wells and expressed as the fold-change relative to untreated controls.
For data set [2], the system named is caspase-3 and PARP in HT29 carcinoma cells. Nature of the data set: Immunoblotting of caspase activation (procaspase-3, PARP). The conditions noted are these: metformin 5 mM 48 hours, then TRAIL 1.5 μg/ml 16 hours. It is filed as cell-based, Human. For orientation: In western blotting, separated proteins are transferred to a membrane and probed.
Data set [3] deals with XIAP in GILM2 breast cancer cells. Nature of the data set: Immunoblot of XIAP expression. It is filed as cell-based, Human. To be noted: 5 mM metformin for 72 hours. How it is done: (§1) Immunoblot of XIAP expression in MDA-MB-231, GILM2 and MDA-MB-468 breast cancer cell lines grown in control media (V) or media containing 5 mM metformin (MF) for 72 hours.
(§2) Without being held to theory, it was postulated that metformin might sensitize cancer cells to TRAIL by downregulating XIAP.

Data set [4] has as its system transformed MCF-10A-RasV12 cells. Nature of the data set: MTS cell viability assay. It counts as cell-based, Human.
Procedure: (§7) Untransformed MCF-10A-Vector and transformed MCF-10A-RasV12 cells were untreated or preincubated with metformin (MF, 5 mM) for 48 hours and then treated with TRAIL (1.5 μg/ml), mapatumumab (1.5 μg/ml), or lexatumumab (1.5 μg/ml) for an additional 24 hours. Cell viability was determined by MTS assay and expressed as fold-change relative to untreated controls. **P<0.01 or ***P<0.001 versus controls.
as §6
The subject of data set [5] is GILM2 cells. Nature of the data set: Crystal violet cell survival assay. The conditions noted are these: for cytotoxicity of agent alone (cell confluence of surviving cells): metformin 5 mM or agonist 1.5 μg/ml alone. The procedure:
(§3) Top panel: representative images.
(§4) Crystal violet cell survival assay: Cells were seeded overnight on 6-well plates (3×10^5 cells/well). […] Surviving cells were fixed and stained with crystal violet as described in the art. The percentage of cell confluence was determined using NIH Image J software.

Data set [6] has as its system caspase-3 and PARP in MCF-10A-RasV12 cells. Nature of the data set: Immunoblotting of caspase activation (procaspase-3, PARP). To be noted: metformin 5 mM 48 hours, then TRAIL 1.5 μg/ml 16 hours. It is filed as cell-based, Human.
For data set [7], the system named is XIAP in MDA-MB-231 breast cancer cells. Nature of the data set: Immunoblot of XIAP expression. It counts as cell-based. To be noted: 5 mM metformin for 72 hours. The procedure:
as §1, §2

In data set [8] the test system is XIAP in MDA-MB-468 breast cancer cells. Nature of the data set: Immunoblot of XIAP expression. It counts as cell-based. To be noted: 5 mM metformin for 72 hours. How it is done: as §1, §2
The subject of data set [9] is DU145 cells. Nature of the data set: Crystal violet cell survival assay. It counts as cell-based, Human.
Excerpt: as §3

Data set [10] deals with HT29 cells. Nature of the data set: Crystal violet cell survival assay. It counts as cell-based, Human.
Excerpt: as §3

The test system of data set [11] is caspase-3 and PARP in GILM2 carcinoma cells. Nature of the data set: Immunoblotting of caspase activation (procaspase-3, PARP). It is filed as cell-based, Human. The conditions noted are these: metformin 5 mM 48 hours, then TRAIL 1.5 μg/ml 16 hours.
Data set [12] has as its system untransformed MCF-10A-Vector cells. Nature of the data set: MTS cell viability assay. It counts as cell-based, Human. The conditions noted are these: metformin 5 mM or agonist 1.5 μg/ml alone.
Procedure: as §7, §6
The test system of data set [13] is caspase-3 and PARP in MCF-10A-Vector cells. Nature of the data set: Immunoblotting of caspase activation (procaspase-3, PARP). It is filed as cell-based, Human. To be noted: metformin 5 mM 48 hours, then TRAIL 1.5 μg/ml 16 hours.
Data set [14] concerns transformed MCF-10A-RasV12 cells. Nature of the data set: Crystal violet cell survival assay. It is filed as cell-based, Human. The conditions noted are these: metformin 5 mM 48 hours preincubation. The procedure: as §3, §4
The test system of data set [15] is untransformed MCF-10A-Vector cells. Nature of the data set: Crystal violet cell survival assay. It counts as cell-based, Human. To be noted: metformin 5 mM. The procedure:
as §3, §4

In data set [16] the test system is TRAIL-R1 on GILM2 cells. Nature of the data set: Cell surface expression of TRAIL receptors by flow cytometry. It is filed as cell-based, Human. To be noted: 5 mM metformin for 72 hours.
Procedure: GILM2 cells were grown in control media or media containing 5 mM metformin for 72 hours, incubated with control IgG, TRAIL-R1 or TRAIL-R2 mAb, and analyzed by flow cytometry.
To determine whether metformin enhances the cell surface expression of TRAIL receptors in cancer cells, GILM2 cells were treated with metformin for 72 hours, and the cell surface expression of TRAIL-R2 and TRAIL-R1 was determined by flow cytometry.
Data set [17] deals with HT29 colon cancer cells. Nature of the data set: MTS cell viability assay.
Procedure: as §5, §6
Data set [18] concerns TRAIL-R1 mRNA in GILM2 cells. Nature of the data set: TRAIL receptor mRNA levels by real-time PCR. It counts as cell-based, Human. The conditions noted are these: 5 mM metformin for 72 hours, normalized to control media. The procedure:
GILM2 breast cancer cells were cultured in control media or media containing 5 mM metformin (MF) for 72 hours, and total RNA was then isolated. TRAIL-R2 and TRAIL-R1 mRNA levels were measured by real-time PCR and normalized to expression in GILM2 cells grown in control media.
To determine whether metformin sensitizes cancer cells to TRAIL by increasing the expression of its proapoptotic receptors (TRAIL-R1 and TRAIL-R2), GILM2 cells were treated with metformin for 72 hours, and then TRAIL receptor mRNA levels were measured by real-time PCR.
On the technique in general: Real-time PCR tracks product formation cycle by cycle.

The test system of data set [19] is GILM2-mCherry mammary tumors. Nature of the data set: Orthotopic model of metastatic triple-negative breast cancer. It is filed as in vivo, female NSG mice. To be noted: NSG mice; TRAIL 10 mg/kg i.p. daily for two weeks; metformin 250 mg/mL in drinking water; alone or combined. How it is done: GILM2-mCherry cells (1×10^6) were injected intraductally into both 4th mammary glands of female NOD scid IL2 receptor γ chain knockout (NSG) mice. Mice were randomized into 4 groups (10 mice per group): vehicle, TRAIL alone (10 mg/kg i.p. daily for two weeks), metformin alone (250 mg/mL in drinking water), or the combination of these doses of metformin and TRAIL. Mice were treated with metformin beginning three weeks after tumor inoculation and throughout the study; TRAIL treatment was initiated 3.5 weeks after tumor cell inoculation.
To determine whether metformin augments the antitumor effects of TRAIL in an orthotopic model of metastatic triple-negative breast cancer, female NSG mice bearing established GILM2-mCherry mammary tumors were treated with vehicle, metformin alone, TRAIL alone or the combination of metformin and TRAIL.

Data set [20] has as its system caspase-3 and PARP in DU145 carcinoma cells. Nature of the data set: Immunoblotting of caspase activation (procaspase-3, PARP). It counts as cell-based, Human. The conditions noted are these: metformin 5 mM 48 hours, then TRAIL 1.5 μg/ml 16 hours.
Data set [21] deals with GILM2 breast carcinoma cells. Nature of the data set: MTS cell viability assay.
Procedure: as §5, §6
Data set [22] relates to metastatic breast cancer cells. To be noted: cited from earlier work.
Where [23] appears, read: metformin 5 mM 48 hours preincubation, then TRAIL 1.5 μg/ml 24 hours.
Setting [24] is: metformin 5 mM 48 hours preincubation, then lexatumumab 1.5 μg/ml 24 hours.
The mark [25] stands for this setting: metformin 5 mM 48 hours preincubation, then mapatumumab 1.5 μg/ml 24 hours.
Setting [26] is: metformin 5 mM or agonist 1.5 μg/ml alone.

On to `CN(C)C(=N)NC(=N)N` [metformin, N,N-dimethylimidodicarbonimidic diamide], for which the “sensitivity to TRAIL (cell viability)” value in [1] (setting [23]), in data set [4] (setting [23]), in [17] (setting [23]) and in [21] (setting [23]) was “enhanced the sensitivity” in each case. The “sensitivity to lexatumumab (cell viability)” value in [1] (setting [24]), in data set [4] (setting [24]), in data set [17] (setting [24]) and in data set [21] (setting [24]) was “enhanced the sensitivity” each time. Moreover, the “cytotoxicity of mapatumumab (cell viability)” value in [1] (setting [25]), in data set [17] (setting [25]) and in [21] (setting [25]) was “did not augment the cytotoxicity” throughout. For the same compound, the “effect on cell viability, agent individually” value in data set [1] (setting [26]) was “modest or no significant effect”; in data set [4] (setting [26]), “only modest effects”; in data set [12] it was “largely resistant”; in data set [17] (setting [26]), “modest or no significant effect”; in data set [21] (setting [26]), “modest or no significant effect”. The “TRAIL-induced proteolysis of the caspase substrate PARP” value in [2], in [11] and in data set [20] was “increased” each time. Also, the “TRAIL-induced proteolytic activation of procaspase-3” value in [2], in data set [11] and in data set [20] was “augmented” throughout. In addition, the XIAP protein levels entry in data set [3], in [7] and in [8] was “reduction” in each case. For the same compound, in data set [4] (setting [25]), the “sensitivity to mapatumumab (cell viability)” value is “not”. Besides, the “cytotoxicity of TRAIL (cell confluence of surviving cells)” value in data set [5] (setting [23]) was “increased the cytoxicity”; in data set [9] (metformin 5 mM 48 hours preincubation, then TRAIL 1.5 μg/ml 48 hours), “increased the cytoxicity”; in [10] (setting [23]), “increased the cytoxicity”. Besides, the “cytotoxicity of lexatumumab (cell confluence of surviving cells)” value was “increased the cytoxicity” in data set [5] (setting [24]); “increased the cytoxicity” in data set [9] (metformin 5 mM 48 hours preincubation, then lexatumumab 1.5 μg/ml 48 hours); “increased the cytoxicity” in data set [10] (setting [24]). The “cytotoxicity of mapatumumab (cell confluence of surviving cells)” value in data set [5] (setting [25]) is listed as “increased the cytoxicity; also recorded: more modest”; in [9] (metformin 5 mM 48 hours preincubation, then mapatumumab 1.5 μg/ml 48 hours) it was “increased the cytoxicity”; in data set [10] (setting [25]), “increased the cytoxicity; also recorded: more modest”. Besides, the entries for the “cytotoxicity of agent alone (cell confluence of surviving cells)” value in [5], in [9] (setting [26]) and in [10] (setting [26]) were “modest cytoxicity”, “modest cytoxicity” and “more robust cytotoxicity”, respectively. In addition, the “TRAIL-induced proteolytic cleavage of PARP” value in data set [6] is “enhanced”; in data set [13] it was “little effect”. Besides, the “TRAIL-induced proteolytic cleavage of procaspase-3” value is “enhanced” in [6] and “little effect” in data set [13]. For the same compound, in data set [14] (then TRAIL 1.5 μg/ml 24 hours), the “sensitization to TRAIL (cell survival)” value was “dramatically sensitized”. Moreover, in data set [14] (then lexatumumab 1.5 μg/ml 24 hours), the “sensitization to lexatumumab (cell survival)” value is given as “dramatically sensitized”. Moreover, the “effect on mapatumumab-induced cell death” value in [14] (then mapatumumab 1.5 μg/ml 24 hours) is “only a modest effect”. Further, the “effect of metformin alone on cell survival” value in data set [15] was “little effect”. The “cell surface expression of TRAIL-R1” value in [16] is listed as “did not significantly affect”. For the same compound, in data set [18], the “TRAIL-R1 mRNA levels” value is “modestly reduced”. In addition, the lung metastases result in data set [19] was “no significant effect”. In addition, the mammary tumor growth entry in data set [19] is reported as “no significant effect”.
“TRAIL: Soluble recombinant TRAIL corresponding to amino acids 95-281 of the protein, expressed in bacteria, His-tagged”: in [19], the lung metastases entry is on record as “inhibited” and the mammary tumor growth result is listed as “inhibited”.
“lexatumumab: fully human IgG1 agonistic monoclonal antibody that binds TRAIL-R2/DR5”: in [5], the “cytotoxicity of agent alone (cell confluence of surviving cells)” value is reported as “modest cell death”. Moreover, the “sensitivity to apoptosis induction, compared with mapatumumab” value in [22] is given as “more sensitive”.
